Molecules are shown by their SMILES. pIC50: −log10 of the molar value.

In one series the target is T1, BCR-NTRK2 BaF3 cells (Homo sapiens, UniProt Q16620).
T1 construct: fused on or other part: P11274 (Breakpoint cluster region protein)
The series can be described thus: BaF3 BCR-NTRK2 cell proliferation assay (ATPlite). Type of series: cell-based. Conditions: read-out: Inhibition of Cell Proliferation IC50, BCR/BaF3 TrkB. The protocol: Compounds are assessed in a variety of cell based assays. For example BaF3 cells engineered with any of BCR-FMS, BCR-KIT, BCR-FLT3, BCR-NTRK1, BCR-NTRK2, and BCR-NTRK3, are used in cell proliferation assays to assess inhibitory activity of Fms, Kit, Flt-3, TrkA, TrkB, and TrkC, respectively. An MV-4-11 (leukemia) cell proliferation assay is used to assess inhibitory activity in Flt-3, and SKNSH (human neuroblastoma) cell proliferation assay is used to assess efficacy of Fms/Trk inhibitors. Additional cells may be assayed similarly to assess the efficacy of Fms/Trk inhibitors, such as MiaPaCa (human pancreatic cancer) and Capan-1 (human pancreatic carcinoma) cells. Reagent and assay conditions are as follows: • BaF3 cells: • Maintained in RPMI containing 10% FBS, 1% PenStrep, 1% NEAA, and 1% L-Glutamine, supplemented with 1 mg/mL G418 and 5% WEHI-CM (or recombinant murine IL-3). • Confluent cells are split 1:50 to 1:100 every 3-4 days. • MV-4-11 cells: • Maintained in Iscove's Modified Dulbecco's Medium containing 10% FBS. • Confluent cells are split 1:4 every 3-4 days. • SKNSH cells: RPMI containing 10% FBS. On day 1, cells are counted, then centrifuged in a conical tube for 5 minutes at 1000 rpm. The supernatant is removed and cells are re-suspended as follows: • BaF3: resuspend in growth media +1 mg/mL G418 (without WEHFIL-3) to 2×10^5 cells/mL. • MV-4-11: resuspend in growth media to 5×10^5 cells/mL. • SKNSH: resuspend in growth media to 2×10^4 cells/mL. The cells are plated (50 μL, 150 μL for SKNSH cells) in each well of a 96-well dish (Corning 3610) and incubated at 37° C. in 5% CO2 overnight, cells plated to a final concentration of cells as follows: • BaF3: 10,000 cells per well. • MV-4-11: 25,000 cells per well. • SKNSH: 3,000 cells per well. On day 2, compound at a maximum concentration of 5 mM is serially diluted 1:3 for a total of 8 point titration with DMSO as a control. A 1 μL aliquot of each dilution point is added to 249 μL growth media and 50 μL is added to a well containing cells, providing 10 μM compound for the maximum concentration point. The cells are incubated for 3 days at 37° C. in 5% CO2. For SKNSH cells, a 0.75 μL aliquot of appropriate dilution in DMSO is added to 150 μL of cells. On day 5, ATPlite 1 step Luminescence Assay System (Perkin Elmer #6016739) is brought to room temperature along with the cell cultures. ATPlite is added to each well as follows: • BaF3: 25 μL per well. • MV-4-11: 40 μL per well. • SKNSH: 20 μL per well. The cells are incubated at room temperature for 10 minutes, then luminescence is read on Safire reader. The measured luminescence correlates directly with cell number, such that the reading as a function of compound concentration is used to determine the IC50 value.
It is understood that the results of these assays may vary as assay conditions are varied. Inhibition levels determined under the conditions described herein represent a relative activity for the compounds tested under the specific conditions employed. The cell based assays are likely to show variability due to the complexity of the system and the sensitivity thereof to any changes in the assay conditions. […] Results for compounds that are tested and show substantially no inhibition below the highest tested concentration are represented as “-” in the tables below. In some instances, the compounds were not tested in all of the assays, or assay results were not valid, as indicated by NA in the tables below.
On the technique in general: In ATP-based viability assays light output follows the ATP content of the culture.

Series [1] is described as follows: Relative solubility by turbidity in aqueous buffers (pH 1.5, 4.5, 6.8, 7.4). To be noted: for turbidity threshold (L, M, H) 1.4: pH 1.5 (SGF); for turbidity threshold (L, M, H) 4.5: pH 4.5 (SIF); for turbidity threshold (L, M, H) 6.8: pH 6.8 (SIF); for turbidity threshold (L, M, H) 7.4: pH 7.4 (HEPES). Type of series: physicochemical. The protocol:
As an indication of relative solubility, the turbidity of compounds in aqueous solutions is assessed. To assess possible compound properties in different physiological compartments, such as stomach, intestine, and blood, a series of aqueous buffers with varying pH is used. Thus each compound is diluted into four different physiologically relevant buffers and solution turbidity is measured by spectrophotometry.
Compounds are dissolved at a concentration of 25 mM in dimethyl sulfoxide, then serially diluted 1:1 into a 96 well plate, diluting 10 times in pure dimethyl sulfoxide, with the final well of each row a dimethyl sulfoxide blank. In an assay plate, 99 μL of appropriate buffer is added to each well, and 1 μL of each sample dilution is added to the buffer, achieving a range of final total concentrations in aqueous solutions having different pH. The buffers used are Simulated Gastric Fluid (SGF-pH 1.5) 0.5M NaCl, pH 1.5; Simulated Intestinal fluid (SIF-pH 4.5 and pH 6.8) 0.05M NaH2PO4, pH 4.5 and 6.8; and Hepes Buffer (HEPES-pH 7.4) 10 mM HEPES, 150 mM NaCl, pH 7.4. Control compounds pyrene, estriol and propranolol HCl are also assessed. Plates are spun and then mixed for 1 minute, and the absorbance is read using a Tecan Safire II to read wavelengths in the visible range (490, 535, and 650 nm) at four locations per well, reflecting the degree of turbidity present. The average optical density for each wavelength in each well is graphed vs. compound concentration, and the concentration at which the curve crosses a threshold O.D. of 0.01 for each wavelength is reported as the endpoint turbidity assay result. The average of the three wavelengths is used to compare turbidity of compounds.

T1 sequence (Q16620 538-807): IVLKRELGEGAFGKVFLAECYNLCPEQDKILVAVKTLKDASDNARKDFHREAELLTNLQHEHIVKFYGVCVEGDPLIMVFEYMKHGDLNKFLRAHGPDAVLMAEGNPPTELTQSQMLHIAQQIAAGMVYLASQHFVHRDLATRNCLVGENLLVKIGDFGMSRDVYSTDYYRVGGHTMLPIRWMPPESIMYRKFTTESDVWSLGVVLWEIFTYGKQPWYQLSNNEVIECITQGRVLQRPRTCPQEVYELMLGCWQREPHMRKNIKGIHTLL

With `COc1ccc(Nc2ccc(C(=O)c3c[nH]c4ncnc(NC5CCC(F)(F)CC5)c34)c(F)n2)cn1` [Compound P-4056, [4-[(4,4-difluorocyclohexyl)amino]-7H-pyrrolo[2,3-d]pyrimidin-5-yl]-[2-fluoro-6-[(6-methoxy-3-pyridyl)amino]-3-pyridyl]methanone], the pIC50 at BCR-NTRK2 BaF3 cells was greater than 8.00. For the same compound, in series [1], the “turbidity threshold (L, M, H) 1.4” value was “M (moderate solubility if the threshold concentration is 31.3 μM to 250 μM)”; the “turbidity threshold (L, M, H) 4.5” value is “M (moderate solubility if the threshold concentration is 31.3 μM to 250 μM)”; the “turbidity threshold (L, M, H) 6.8” value is “M (moderate solubility if the threshold concentration is 31.3 μM to 250 μM)”; the “turbidity threshold (L, M, H) 7.4” value is reported as “L (low solubility if the threshold concentration is <31.3 μM)”.

Take `O=C(c1ccc(NC2CCC(F)(F)CC2)nc1Cl)c1c[nH]c2ncnc(NCC(F)(F)F)c12` [Compound P-4057, [2-chloro-6-[(4,4-difluorocyclohexyl)amino]-3-pyridyl]-[4-(2,2,2-trifluoroethylamino)-7H-pyrrolo[2,3-d]pyrimidin-5-yl]methanone]: the pIC50 on BCR-NTRK2 BaF3 cells was less than 6.00. Moreover, in series [1], the “turbidity threshold (L, M, H) 1.4” value is “L (low solubility if the threshold concentration is <31.3 μM)”; the “turbidity threshold (L, M, H) 4.5” value is given as “L (low solubility if the threshold concentration is <31.3 μM)”; the “turbidity threshold (L, M, H) 6.8” value is on record as “L (low solubility if the threshold concentration is <31.3 μM)”; the “turbidity threshold (L, M, H) 7.4” value is given as “M (moderate solubility if the threshold concentration is 31.3 μM to 250 μM)”.

As to `CNc1ncnc2[nH]cc(C(=O)c3ccc(NC4CCC(F)(F)CC4)nc3Cl)c12` [Compound P-4058, [2-chloro-6-[(4,4-difluorocyclohexyl)amino]-3-pyridyl]-[4-(methylamino)-7H-pyrrolo[2,3-d]pyrimidin-5-yl]methanone], at BCR-NTRK2 BaF3 cells, the pIC50 was greater than 6.00. For the same compound, in series [1], the “turbidity threshold (L, M, H) 1.4” value was “M (moderate solubility if the threshold concentration is 31.3 μM to 250 μM)”; the “turbidity threshold (L, M, H) 4.5” value is reported as “L (low solubility if the threshold concentration is <31.3 μM)”; the “turbidity threshold (L, M, H) 6.8” value is “L (low solubility if the threshold concentration is <31.3 μM)”; the “turbidity threshold (L, M, H) 7.4” value is “L (low solubility if the threshold concentration is <31.3 μM)”.

Consider `O=C(c1ccc(NC2CCC(F)(F)CC2)nc1Cl)c1c[nH]c2ncnc(NC3CC3)c12` [Compound P-4059, [2-chloro-6-[(4,4-difluorocyclohexyl)amino]-3-pyridyl]-[4-(cyclopropylamino)-7H-pyrrolo[2,3-d]pyrimidin-5-yl]methanone], for which, at BCR-NTRK2 BaF3 cells, the pIC50 is greater than 7.00. Moreover, in series [1], the “turbidity threshold (L, M, H) 1.4” value is reported as “M (moderate solubility if the threshold concentration is 31.3 μM to 250 μM)”; the “turbidity threshold (L, M, H) 4.5” value is “L (low solubility if the threshold concentration is <31.3 μM)”; the “turbidity threshold (L, M, H) 6.8” value is given as “L (low solubility if the threshold concentration is <31.3 μM)”; the “turbidity threshold (L, M, H) 7.4” value is reported as “L (low solubility if the threshold concentration is <31.3 μM)”.

With `CCNc1ncnc2[nH]cc(C(=O)c3ccc(Nc4ccc(C5CC5)nc4)nc3F)c12` [Compound P-4060, [6-[(6-cyclopropyl-3-pyridyl)amino]-2-fluoro-3-pyridyl]-[4-(ethylamino)-7H-pyrrolo[2,3-d]pyrimidin-5-yl]methanone], the pIC50 on BCR-NTRK2 BaF3 cells is greater than 8.00. For the same compound, in series [1], the “turbidity threshold (L, M, H) 1.4” value is reported as “H (high solubility if the threshold concentration is >250 μm)”; the “turbidity threshold (L, M, H) 4.5” value is “M (moderate solubility if the threshold concentration is 31.3 μM to 250 μM)”; the “turbidity threshold (L, M, H) 6.8” value is listed as “M (moderate solubility if the threshold concentration is 31.3 μM to 250 μM)”; the “turbidity threshold (L, M, H) 7.4” value is “M (moderate solubility if the threshold concentration is 31.3 μM to 250 μM)”.

On to `O=C(c1ccc(NC2CCC(F)(F)CC2)nc1F)c1c[nH]c2ncnc(NCC(F)(F)F)c12` [Compound P-4061, [6-[(4,4-difluorocyclohexyl)amino]-2-fluoro-3-pyridyl]-[4-(2,2,2-trifluoroethylamino)-7H-pyrrolo[2,3-d]pyrimidin-5-yl]methanone], for which, at BCR-NTRK2 BaF3 cells, the pIC50 is greater than 8.00. Moreover, in series [1], the “turbidity threshold (L, M, H) 1.4” value is recorded as “M (moderate solubility if the threshold concentration is 31.3 μM to 250 μM)”; the “turbidity threshold (L, M, H) 4.5” value is “L (low solubility if the threshold concentration is <31.3 μM)”; the “turbidity threshold (L, M, H) 6.8” value is “M (moderate solubility if the threshold concentration is 31.3 μM to 250 μM)”; the “turbidity threshold (L, M, H) 7.4” value is “M (moderate solubility if the threshold concentration is 31.3 μM to 250 μM)”.

On to `O=C(c1ccc(NC2CCC(F)(F)CC2)nc1F)c1c[nH]c2ncnc(NC3CC3)c12` [Compound P-4062, [4-(cyclopropylamino)-7H-pyrrolo[2,3-d]pyrimidin-5-yl]-[6-[(4,4-difluorocyclohexyl)amino]-2-fluoro-3-pyridyl]methanone], for which the pIC50 at BCR-NTRK2 BaF3 cells is greater than 8.00. For the same compound, in series [1], the “turbidity threshold (L, M, H) 1.4” value was “H (high solubility if the threshold concentration is >250 μm)”; the “turbidity threshold (L, M, H) 4.5” value is given as “L (low solubility if the threshold concentration is <31.3 μM)”; the “turbidity threshold (L, M, H) 6.8” value is listed as “M (moderate solubility if the threshold concentration is 31.3 μM to 250 μM)”; the “turbidity threshold (L, M, H) 7.4” value is on record as “L (low solubility if the threshold concentration is <31.3 μM)”.

In the case of `CNc1ncnc2[nH]cc(C(=O)c3ccc(NC4CCC(F)(F)CC4)nc3F)c12` [Compound P-4063, [6-[(4,4-difluorocyclohexyl)amino]-2-fluoro-3-pyridyl]-[4-(methylamino)-7H-pyrrolo[2,3-d]pyrimidin-5-yl]methanone], the pIC50 on BCR-NTRK2 BaF3 cells was greater than 7.00. Further, in series [1], the “turbidity threshold (L, M, H) 1.4” value is given as “M (moderate solubility if the threshold concentration is 31.3 μM to 250 μM)”; the “turbidity threshold (L, M, H) 4.5” value is “M (moderate solubility if the threshold concentration is 31.3 μM to 250 μM)”; the “turbidity threshold (L, M, H) 6.8” value is given as “M (moderate solubility if the threshold concentration is 31.3 μM to 250 μM)”; the “turbidity threshold (L, M, H) 7.4” value is “M (moderate solubility if the threshold concentration is 31.3 μM to 250 μM)”.

The record behind these values is patent US8901118B2, “Compounds and methods for kinase modulation, and indications therefor” (Plexxikon Inc., priority 2010, dated 2014).
